# System: HL60 cells
# Test: Anti-proliferation on HL60 cells (CellTiter-Glo, 3 days)
# Format: cell-based
# Conditions: Homo sapiens, HL-60, 72 h, 3 days incubation, CTG luminescence, IC50 by XLfit, read-out: HL60 cells Proliferation inhibitory activity
# Experimental: HL60 cells (Cell Bank of Chinese Academy of Sciences) in the logarithmic growth phase were counted and plated evenly in a 96-well transparent bottom white plate at 20000 cells per well and 100 μL per well.
# A certain amount of the compound of the present invention was weighed and diluted with DMSO to a 10 mM stock solution. The culture medium RPMI-1640 (meilunbio, MA0215) corresponding to the cells were taken, and the compound was diluted to the concentration required by the test, shaken gently and mixed evenly. 50 μL of the gradient dilution of the diluted compound was added to each well of the plated cells, and 50 μL of 0.1% DMSO was added to the control group. The plate was shaken gently, mixed evenly and incubated in a cell culture incubator for 3 days.
# • 3.1 The CellTiter-Glo™ (CTG) (purchased from Promega, Cat. No. G9242) reagent was taken in advance from the −20° C. refrigerator and equilibrated to room temperature in the dark. Cell Titer-Glo buffer and Cell Titer-Glo substrate were mixed at a ratio of 1:1 to prepare a CTG detection reagent. • 3.2 The 96-well plate was taken out and inspected under a microscope for growth. • 3.3 The bottom of the 96-well plate was tagged with white paper, and then the plate was wrapped with tin foil paper, shaken at 37° C. at 300 r for 10 min and mixed evenly. • 3.4. 50 μL of CTG detection reagent was added to each well, Luminescence signal was detected using a microplate reader Biotek Synergy Hi, and the inhibition rate was calculated. IC50 values of the compounds were calculated by XLfit 5.5.0 software to evaluate the proliferation inhibitory activity on HL60 cells.
row,Structure (SMILES),IC50
1,O=C1CCC(N2Cc3nc(CNCC4CCN(c5ncc(-c6cccc(Cl)c6)cc5C(F)(F)F)CC4)ccc3C2=O)C(=O)N1 (centres unmarked) [Compound A141],160 nM
2,O=C1CCC(n2nc3cc(CNCC4CCN(c5ncc(-c6cccc(F)c6)cc5F)CC4)ccn3c2=O)C(=O)N1 (centres unmarked) [Compound A147],12300 nM
3,O=C1CCC(N2Cc3c(csc3CNCC3CCN(c4ncc(-c5cccc(Cl)c5)cc4C(F)(F)F)CC3)C2=O)C(=O)N1 (centres unmarked) [Compound A143],3040 nM
4,O=C1CCC(N2Cc3cc(NC(=O)CC4CCN(C(=O)NCc5cccc6ccccc56)CC4)ccc3C2=O)C(=O)N1 (centres unmarked) [Compound A1],190 nM
5,O=C1CCC(N2Cc3cc(OCCC4CCN(c5ncc(-c6cccc(Cl)c6)cc5C(F)(F)F)CC4)ccc3C2=O)C(=O)N1 (centres unmarked) [Compound A133],175 nM
6,Cc1nc2cc(CNCC3CCN(c4ncc(-c5cccc(Cl)c5)cc4C(F)(F)F)CC3)ccc2c(=O)n1C1CCC(=O)NC1=O (centres unmarked) [Compound A152],7320 nM
7,O=C1CCC(N2Cc3cc(CNCC4C5CCC4CN(c4ncc(-c6cccc(Cl)c6)cc4C(F)(F)F)C5)ccc3C2=O)C(=O)N1 (centres unmarked) [Compound A91],36.1 nM
8,O=C1CCC(NC(=O)Cc2ccc(CNCC3CCN(c4ncc(-c5cccc(Cl)c5)cc4C(F)(F)F)CC3)cc2)C(=O)N1 (centres unmarked) [Compound A167],9580 nM
9,O=C1CCC(N2Cc3cc(C(=O)NCC4CCN(c5ccnc(-c6cccc7ccccc67)n5)CC4)ccc3C2=O)C(=O)N1 (centres unmarked) [Compound A20],21 nM
10,Cn1nc(N2CCC(=O)NC2=O)c2ccc(CNCC3CCN(c4ncc(-c5cccc(Cl)c5)cc4C(F)(F)F)CC3)cc21 [Compound A177],4350 nM
11,O=C1CCC(c2cn3cc(CNCC4CCN(c5ncc(-c6cccc(Cl)c6)cc5C(F)(F)F)CC4)ccc3n2)C(=O)N1 (centres unmarked) [Compound A148],8520 nM
12,Cc1nc2ccc(CNCC3CCN(c4ncc(-c5cccc(Cl)c5)cc4C(F)(F)F)CC3)cc2c(=O)n1C1CCC(=O)NC1=O (centres unmarked) [Compound A151],687 nM
13,O=C1CCC(N2Cc3cc(CNCC4CCN(c5ncc(-c6ccccn6)cc5F)CC4)ccc3C2=O)C(=O)N1 (centres unmarked) [Compound A106],878 nM
14,CN(C(=O)c1ccc(CNCC2CCN(c3ncc(-c4cccc(Cl)c4)cc3C(F)(F)F)CC2)cc1)C1CCC(=O)NC1=O (centres unmarked) [Compound A163],8220 nM
15,O=C1C[C@@H](N2Cc3cc(CNCC4CCN(c5ncc(-c6cccc(F)c6)cc5C(F)(F)F)CC4)ccc3C2=O)C(=O)N1 [Compound A173],9370 nM
16,O=C1CCC(N2C(=O)c3cccc4c(CNCC5CCN(c6ncc(-c7cccc(F)c7)cc6F)CC5)ccc2c34)C(=O)N1 (centres unmarked) [Compound A175],11500 nM
17,O=C1C[C@H](N2Cc3cc(CNCC4CCN(c5ncc(-c6cccc(F)c6)cc5C(F)(F)F)CC4)ccc3C2=O)C(=O)N1 [Compound A172],9990 nM

row,Structure (SMILES),IC50
1,O=C1CCC(c2coc3ccc(CNCC4CCN(c5ncc(-c6cccc(Cl)c6)cc5C(F)(F)F)CC4)cc23)C(=O)N1 (centres unmarked) [Compound A150],3360 nM
2,O=C(CN1CCC(CNC(=O)c2ccc3c(c2)CN(C2CCC(=O)NC2=O)C3=O)CC1)NCCn1c2ccccc2c2cccnc21 (centres unmarked) [Compound A7],94 nM
3,O=C(CN1CCC(CC(=O)Nc2ccc3c(c2)CN(C2CCC(=O)NC2=O)C3=O)CC1)NCc1cccc2ccccc12 (centres unmarked) [Compound A5],10 nM
4,O=C1CCC(N2Cc3cc(NC(=O)CC4CCN(CC(=O)N5CCCc6ccccc65)CC4)ccc3C2=O)C(=O)N1 (centres unmarked) [Compound A3],7.9 nM
5,O=C1CCC(n2c(C3CC3)nc3cc(CNCC4CCN(c5ncc(-c6cccc(Cl)c6)cc5C(F)(F)F)CC4)ccc3c2=O)C(=O)N1 (centres unmarked) [Compound A153],11600 nM
6,O=C1CCC(NC(=O)c2ccc(CNCC3CCN(c4ncc(-c5cccc(Cl)c5)cc4C(F)(F)F)CC3)c(Br)c2)C(=O)N1 (centres unmarked) [Compound A160],1100 nM
7,O=C(CN1CCC(CNC(=O)c2ccc3c(c2)CN(C2CCC(=O)NC2=O)C3=O)CC1)NCc1cccc2ccccc12 (centres unmarked) [Compound A6],192 nM
8,O=C(CC1CCN(c2ncc(-c3cccc4ccccc34)cn2)CC1)Nc1ccc2c(c1)CN(C1CCC(=O)N(COP(=O)(O)O)C1=O)C2=O (centres unmarked) [Compound A117],12 nM
9,O=C(CN1CCC(CC(=O)Nc2ccc3c(c2)CN(C2CCC(=O)NC2=O)C3=O)CC1)NCCn1c2ccccc2c2cccnc21 (centres unmarked) [Compound A8],14 nM
10,Cn1nc(N2CCC(=O)NC2=O)c2cc(CNCC3CCN(c4ncc(-c5cccc(Cl)c5)cc4C(F)(F)F)CC3)ccc21 [Compound A176],5210 nM
11,O=C1CCC(N2Cc3cc(CNCC4CC5CCC(C4)N5c4ncc(-c5cccc(Cl)c5)cc4C(F)(F)F)ccc3C2=O)C(=O)N1 (centres unmarked) [Compound A90],45.6 nM
12,O=C1CCC(NS(=O)(=O)c2ccc(CNCC3CCN(c4ncc(-c5cccc(Cl)c5)cc4C(F)(F)F)CC3)cc2)C(=O)N1 (centres unmarked) [Compound A164],7230 nM
13,O=C1CCC(N2Cc3cc(CNCC4CCN(c5ncc(-n6c7ccccc7c7ccccc76)cc5C(F)(F)F)CC4)ccc3C2=O)C(=O)N1 (centres unmarked) [Compound A129],120 nM
14,O=C1CCC(NC(=O)c2ccc(CNCC3CCN(c4ncc(-c5cccc(Cl)c5)cc4C(F)(F)F)CC3)nc2)C(=O)N1 (centres unmarked) [Compound A157],11700 nM
15,O=C(CN1CCC(CC(=O)Nc2ccc3c(c2)CN(C2CCC(=O)NC2=O)C3=O)CC1)NCCc1cccc2ccccc12 (centres unmarked) [Compound A10],7.4 nM
16,COc1cccc(-c2cnc(N3CCC(CNCc4scc5c4CN(C4CCC(=O)NC4=O)C5=O)CC3)c(C(F)(F)F)c2)c1 (centres unmarked) [Compound A144],752 nM
17,COc1cc(CNCC2CCN(c3ncc(-c4cccc(Cl)c4)cc3C(F)(F)F)CC2)ccc1C(=O)NC1CCC(=O)NC1=O (centres unmarked) [Compound A161],11200 nM

# Now those with a lower IC50, led by results:
row,IC50,Structure (SMILES)
1,1 nM,O=C1CCC(N2Cc3cc(NC(=O)CC4CCN(c5cccc(-c6cccc7ccccc67)n5)CC4)ccc3C2=O)C(=O)N1 (centres unmarked) [Compound A15]
2,< 3.04 nM,Cc1cccc(-c2cnc(N3CCC(CNCc4ccc5c(c4)CN([C@@H]4CCC(=O)NC4=O)C5=O)CC3)c(C(F)(F)F)c2)c1 [Compound A124]
3,< 0.2 nM,O=C1CCC(N2Cc3cc(NC(=O)CC4CCN(c5ncc(-c6ccccc6)cn5)CC4)ccc3C2=O)C(=O)N1 (centres unmarked) [Compound A51]
4,0.2 nM,O=C1CCC(N2Cc3cc(C(=O)NCC4CCN(c5ncc(-c6cccc7ccccc67)s5)CC4)ccc3C2=O)C(=O)N1 (centres unmarked) [Compound A23]
5,< 0.2 nM,CN(C)c1cc(-c2cccc(Cl)c2)cnc1N1CCC(CNCc2ccc3c(c2)CN(C2CCC(=O)NC2=O)C3=O)CC1 (centres unmarked) [Compound A79]
6,4 nM,O=C1CCC(N2Cc3cc(NC(=O)CC4CCN(c5cccc(-c6cccc7ccccc67)c5)CC4)ccc3C2=O)C(=O)N1 (centres unmarked) [Compound A22]
7,6 nM,O=C1CCC(N2Cc3cc(NC(=O)CC4CCN(CC(=O)Nc5cccc6ccccc56)CC4)ccc3C2=O)C(=O)N1 (centres unmarked) [Compound A9]
8,< 0.2 nM,Cc1cc(-c2cccc(Cl)c2)cnc1N1CCC(CNCc2ccc3c(c2)CN(C2CCC(=O)NC2=O)C3=O)CC1 (centres unmarked) [Compound A76]
9,1.4 nM,O=C1CCC(N2Cc3cc(C(=O)NCC4CCN(c5ncc(-c6cccc(Cl)c6)cn5)CC4)ccc3C2=O)C(=O)N1 (centres unmarked) [Compound A52]
10,1.5 nM,O=C1CCC(N2Cc3cc(CNCC4CCN(c5ncc(-c6cc(F)cc(Cl)c6)cc5C(F)(F)F)CC4)ccc3C2=O)C(=O)N1 (centres unmarked) [Compound A115]
11,2.6 nM,O=C1CCC(N2Cc3cc(C(=O)NCC4CCN(c5ncc(-c6ccc7ccccc7c6)cn5)CC4)ccc3C2=O)C(=O)N1 (centres unmarked) [Compound A39]
12,1.09 nM,COc1cccc(-c2cnc(N3CCC(F)(C(=O)NCc4ccc5c(c4)CN(C4CCC(=O)NC4=O)C5=O)CC3)c(F)c2)c1 (centres unmarked) [Compound A119]
13,0.8 nM,O=C1CCC(N2Cc3cc(CNCC4CCN(c5ncc(-c6cccc(Cl)c6)cc5F)CC4(F)F)ccc3C2=O)C(=O)N1 (centres unmarked) [Compound A88]
14,1.5 nM,O=C1CCC(N2Cc3cc(C(=O)NCC4CCN(c5cc(-c6cccc7ccccc67)ccn5)CC4)ccc3C2=O)C(=O)N1 (centres unmarked) [Compound A16]
15,5 nM,O=C1CCC(N2Cc3cc(C(=O)NCC4CCN(c5ccc(-c6cccc7cccnc67)nc5)CC4)ccc3C2=O)C(=O)N1 (centres unmarked) [Compound A44]
16,2.9 nM,O=C1CCC(N2Cc3cc(C(=O)NCC4CCN(c5cccc(-c6cccc7ccccc67)c5)CC4)ccc3C2=O)C(=O)N1 (centres unmarked) [Compound A21]
17,0.54 nM,Cc1ccc(N2CCN(Cc3ccc(C(=O)NCc4ccc5c(c4)CN(C4CCC(=O)NC4=O)C5=O)cc3)CC2)cc1Cl (centres unmarked) [Compound A130]
18,0.3 nM,O=C1CCC(N2Cc3cc(NC(=O)CC4CCN(c5cnc(-c6cccc7ccccc67)s5)CC4)ccc3C2=O)C(=O)N1 (centres unmarked) [Compound A25]
19,< 0.2 nM,O=C1CCC(N2Cc3cc(C(=O)NCC4CCN(c5ccc(-c6nccc7ccccc67)cn5)CC4)ccc3C2=O)C(=O)N1 (centres unmarked) [Compound A45]
20,0.2 nM,O=C1CCC(N2Cc3cc(C(=O)NCC4CCN(c5ccc(-c6cccc7cccnc67)cn5)CC4)ccc3C2=O)C(=O)N1 (centres unmarked) [Compound A42]
21,0.6 nM,CC(C)c1cnc(N2CCC(CC(=O)Nc3ccc4c(c3)CN(C3CCC(=O)NC3=O)C4=O)CC2)nc1 (centres unmarked) [Compound A50]
22,0.2 nM,O=C1CCC(N2Cc3cc(NC(=O)CC4CCN(c5ccc(-c6ccc7ccccc7c6)cn5)CC4)ccc3C2=O)C(=O)N1 (centres unmarked) [Compound A41]

# Source: patent US20250059162A1, “MULTI-PROTEIN DEGRADATION AGENT HAVING IMIDE SKELETON” (SUZHOU KINTOR PHARMACEUTICALS, INC., priority 2021, published 2025)
